Experimental data published in patent US5614554A, “Reverse transcriptase inhibitors and antiviral agents” (Nippon Flour Mills Co., Ltd., priority 1992, dated 1997).
“Also recorded” adds a separate entry of the source. Like-named read-outs stand apart in the source and are kept apart here.

Assays:
[1] = molecular target: reverse transcriptase derived from AMV; assay: Reverse transcriptase inhibitory effect, AMV enzyme; type: biochemical, AMV (avian myeloblastosis virus); details: poly(A).oligo(dT)12-18, 37° C., 10 minutes
Method: (§1) 20 μl of reaction solution was prepared so as to comprise 50 mM of Tris-hydrochloric acid buffer solution (pH 8.5), 40 mM of KCl, 6 mM of MgCl2, 1 mM of dithiothreitol, 50 μg/ml of poly(A). oligo (dT)12-18, [α^-32 P] deoxythymidine triphosphate, reverse transcriptase and sodium L-tyrosine sulfate.
(§2) After the reaction solution was incubated at 37° C. for 10 minutes, the reaction solution was deposited on DE 81 filter (available from Whatman). The filter was then washed thoroughly with 5% aqueous solution of Na2 HPO4 and subsequently with water, ethanol and diethyl ether. Radiation of the filter was examined by scintillation counter and then the concentration which inhibits 50% of reverse transcriptase activity (IC50) was calculated.
(§3) The reverse transcriptases used in this test were those derived from AMV (avian myeloblastosis virus) and HIV.

mice leukemia cell L1210 = assay: Influence on the proliferation of mice leukemia cell L1210; type: cell-based; details: 250 μg/ml, cultured for four days, compared with compound-free control
Method: To the culture of mice leukemia cell L1210, sodium L-tyrosine sulfate was added at the concentration of 250 μg/ml and then the mixture was cultured for four days.

male mice of ICR = assay: Acute toxicity on mice; type: in vivo; details: intraperitoneally, 500 mg/kg, male ICR mice at age of 4 weeks
Method: Sodium L-tyrosine sulfate was intraperitoneally injected to male mice of ICR at age of 4 weeks at the dose of 500 mg/kg to examine an acute toxicity.

Solvent solubility = type: physicochemical; details: sulfate
HTLV-IIIB = assay: Inhibitory effect on HIV-induced cell damage in infected MT-4 cells (MTT method); type: cell-based; details: Human immunodeficiency virus 1, IIIB, MT4, 120 h, read-out: Efficiency
Method: (§4) In this test, there were used human T cell strain MT-4 cells (Gann monogr., Vol. 28, pp219-228 (1982)), which was tranformed with HTLV-1 which is an etiogenic virus of adult T cell leukemia, and HTLV-IIIB which is one of HIV strains. This test was performed in accordance with the method of Pauwels et al. (Pauwels et al., J. Virol. Methods, Vol. 20, pp309-21 (1988)).
(§5) Immediately after MT-4 cells were infected with HTLV-IIIB [MOI (multiplicity of infection =the number of inoculated virus/the number of cells): 0.01], sodium L-tyrosine sulfate and the HTLV-IIB-infected MT-4 cells were added to a microtiter plate having 96 wells at a variety of concentrations of sodium L-tyrosine sulfate and the concentration of 2.5×10^4 cells/well, respectively. These samples were cultivated at 37° C. for five days with carbon dioxide incubator. According to MTT method, the number of survival cells was then determined by measuring an absorbance to calculate an efficiency.

[2] = molecular target: T1, reverse transcriptase derived from HIV (Human immunodeficiency virus type 1 group M subtype B, UniProt P04585); assay: Reverse transcriptase inhibitory effect, HIV enzyme; type: biochemical
T1 construct: the reverse transcriptase derived from HIV
Method: as §1, §2, §3

[3] = Influence on the proliferation of T cells (non-infected MT-4 cells); type: cell-based; details: human, read-out: Survival rate
Method: as §4, §5
As in Test Example 1, there was determined the influence of sodium L-tyrosine sulfate on the proliferation of HTLV-IIIB-non-infected MT-4 cells and the survival rate of the cells was calculated.

| SMILES | IC50 (concentration which inhibits 50% of reverse transcriptase activity) [1] [µg/mL] | Inhibitory effect on the proliferation of L1210 (mice leukemia cell L1210) | Acute toxicity (male mice of ICR) | Solvent solubility (Solvent solubility; product of Synthesis Example 1 before purification) | Solvent solubility (Solvent solubility; product of Synthesis Example 1 purified by Sephadex LH-20) | inhibition at 0.32 µg/mL (HTLV-IIIB) [%] | inhibition at 1.6 µg/mL (HTLV-IIIB) [%] | inhibition at 8 µg/mL (HTLV-IIIB) [%] | inhibition at 40 µg/mL (HTLV-IIIB) [%] | inhibition at 200 µg/mL (HTLV-IIIB) [%] | inhibition at 1000 µg/mL (HTLV-IIIB) [%] | IC50 [2] [µM] | viability at 120 h ([3]; 0.32 μg/ml) [%] | viability at 120 h ([3]; 1.6 μg/ml) [%] | viability at 120 h ([3]; 8 μg/ml) [%] | viability at 120 h ([3]; 40 μg/ml) [%] | viability at 120 h ([3]; 200 μg/ml) [%] | viability at 120 h ([3]; 1000 μg/ml) [%] |
| --- | --- | --- | --- | --- | --- | --- | --- | --- | --- | --- | --- | --- | --- | --- | --- | --- | --- | --- |
| N[C@@H](Cc1ccc(OS(=O)(=O)[O-])cc1)C(=O)O.[Na+] | 230 | hardly any inhibitory effects on the proliferation | not observed any remarkable toxicity | soluble in water, methanol and dimethyl sulfoxide; also recorded: insoluble in acetone, ethylacetate, hexane and chloroform | soluble in water, methanol and dimethyl sulfoxide; also recorded: insoluble in acetone, ethylacetate, hexane and chloroform | – | – | – | – | – | – | – | – | – | – | – | – | – |
| N[C@@H](Cc1ccc(OS(=O)(=O)[O-])cc1)C(=O)O.[Na+] [sulfate] | – | – | – | – | – | -5 | 61 | 116 | 91 | 124 | 106 | 127 | 98 | 97 | 110 | 94 | 120 | 112 |
